In patent publication US20200340007A1, “CLALS PROTEIN, ITS CODING GENE AND USE IN PREDICTING THE HERBICIDE RESISTANCE OF WATERMELON” (BEIJING ACADEMY OF AGRICULTURE AND FORESTRY SCIENCES, priority 2018, published 2020):

Assays:
[1] = system: P190L homozygous mutant strain seedlings; assay: Identification of herbicide resistance spectrum; type: in vivo, watermelon; conditions: leaf spray, tribenuron 15, halosulfuron 33.75, bensulfuron 22.5, pyrazosulfuron 24, flumetsulam 48, flucarbazone 31.5 g ai/ha, 7 days
Description: (§1) Watermelon seeds to be tested are seeds of non-transgenic watermelon, seeds of P190L homozygous mutant strain, seeds of P190S homozygous mutant strain, seeds of P190L heterozygous mutant strain, or seeds of P190S heterozygous mutant strain.
(§2) The experiment was repeated three times, and the steps for each are as follows:
(§3) 1. Planting 5 watermelon seeds to be tested in the field and culturing routinely for 10 days until the cotyledons are flattened to obtain the watermelon seedlings to be tested.
(§4) 2. After step 1 is completed, taking the watermelon seedlings to be tested and spraying the leaves with tribenuron, halosulfuron, bensulfuron, pyrazosulfuron, flumetsulam, and flucarbazone, respectively (spraying dose of tribenuron, halosulfuron, bensulfuron, pyrazosulfuron, flumetsulam, and flucarbazone were 15, 33.75, 22.5, 24, 48, and 31.5 g ai/ha; g represents gram, ai represents the active ingredient, ha represents hectare), and then culturing for 7 days to observe the growth status of the watermelon seedling to be tested.
(§5) 3. After step 1 is completed, taking the watermelon seedlings to be tested, spraying the leaves with the same volume of water as the herbicide in step 2, and then culturing for 7 days, to observe the growth status of the watermelon seedlings as a control.

[2] = system: P190L heterozygous mutant strain seedlings; assay: Identification of herbicide resistance spectrum; type: in vivo, watermelon; conditions: leaf spray, tribenuron 15, halosulfuron 33.75, bensulfuron 22.5, pyrazosulfuron 24, flumetsulam 48, flucarbazone 31.5 g ai/ha, 7 days
Description: as §1, §2, §3, §4, §5

[3] = system: P190S homozygous mutant strain seedlings; assay: Identification of herbicide resistance spectrum; type: in vivo, watermelon; conditions: leaf spray, tribenuron 15, halosulfuron 33.75, bensulfuron 22.5, pyrazosulfuron 24, flumetsulam 48, flucarbazone 31.5 g ai/ha, 7 days
Description: as §1, §2, §3, §4, §5

[4] = system: P190S heterozygous mutant strain seedlings; assay: Identification of herbicide resistance spectrum; type: in vivo, watermelon; conditions: leaf spray, tribenuron 15, halosulfuron 33.75, bensulfuron 22.5, pyrazosulfuron 24, flumetsulam 48, flucarbazone 31.5 g ai/ha, 7 days
Description: as §1, §2, §3, §4, §5

[5] = system: P190L homozygous mutant strain seedlings; assay: Identification of resistance to the herbicide tribenuron, seedlings sprayed in the field; type: in vivo, watermelon; conditions: leaf spray 17 g ai/ha
Description: (§6) The watermelon seeds to be tested are seeds of non-transgenic watermelon, seeds of P190L homozygous mutant strains, seeds of P190S homozygous mutant strains, seeds of P190L heterozygote mutant strains, or seeds of P190S heterozygote mutant strains.
(§7) The experiment was repeated three times, and the steps for each were as follows:
(§8) 1. Planting 20 watermelon seeds to be tested in the field and culturing routinely to obtain watermelon seedlings to be tested in a two-leaf one-heart period.
(§9) 2. After step 1 is completed, taking the watermelon seedlings to be tested, spraying the leaves with tribenuron (the spraying dose is 17 g ai/ha; g represents gram, ai represents the active ingredient, and ha represents hectare), and then culturing routinely for 7 days to observe the growth status of the watermelon seedlings to be tested.

[6] = system: P190L heterozygous mutant strain seedlings; assay: as above; type: in vivo, watermelon; conditions: leaf spray 17 g ai/ha, observed 7 days
Description: as §6, §7, §8, §9

[7] = system: P190S homozygous mutant strain seedlings; assay: as above; type: in vivo, watermelon; conditions: leaf spray 17 g ai/ha
Description: as §6, §7, §8, §9

[8] = system: P190S heterozygous mutant strain seedlings; assay: as above; type: in vivo, watermelon; conditions: leaf spray 17 g ai/ha, observed 7 days
Description: as §6, §7, §8, §9

[9] = system: non-transgenic watermelon seedlings; assay: as above; type: in vivo; conditions: leaf spray 17 g ai/ha
Description: as §6, §7, §8, §9

COc1cc(OC)nc(NC(=O)NS(=O)(=O)Cc2ccccc2C(=O)O)n1 [bensulfuron]
obvious resistance: resistance of seedlings to the herbicide compared with non-transgenic watermelon [1] | resistance of seedlings to the herbicide compared with non-transgenic watermelon [2] | resistance of seedlings to the herbicide compared with non-transgenic watermelon [3] | resistance of seedlings to the herbicide compared with non-transgenic watermelon [4]

COc1nn(C(=O)NS(=O)(=O)c2ccccc2OC(F)(F)F)c(=O)n1C [flucarbazone]
obvious resistance: resistance of seedlings to the herbicide compared with non-transgenic watermelon [1] | resistance of seedlings to the herbicide compared with non-transgenic watermelon [2] | resistance of seedlings to the herbicide compared with non-transgenic watermelon [3] | resistance of seedlings to the herbicide compared with non-transgenic watermelon [4]

Cc1ccn2nc(S(=O)(=O)Nc3c(F)cccc3F)nc2n1 [flumetsulam]
obvious resistance: resistance of seedlings to the herbicide compared with non-transgenic watermelon [1] | resistance of seedlings to the herbicide compared with non-transgenic watermelon [2] | resistance of seedlings to the herbicide compared with non-transgenic watermelon [3] | resistance of seedlings to the herbicide compared with non-transgenic watermelon [4]

COc1cc(OC)nc(NC(=O)NS(=O)(=O)c2c(C(=O)O)c(Cl)nn2C)n1 [halosulfuron]
obvious resistance: resistance of seedlings to the herbicide compared with non-transgenic watermelon [1] | resistance of seedlings to the herbicide compared with non-transgenic watermelon [2] | resistance of seedlings to the herbicide compared with non-transgenic watermelon [3] | resistance of seedlings to the herbicide compared with non-transgenic watermelon [4]

COc1cc(OC)nc(NC(=O)NS(=O)(=O)c2c(C(=O)O)cnn2C)n1 [pyrazosulfuron]
obvious resistance: resistance of seedlings to the herbicide compared with non-transgenic watermelon [1] | resistance of seedlings to the herbicide compared with non-transgenic watermelon [2] | resistance of seedlings to the herbicide compared with non-transgenic watermelon [3] | resistance of seedlings to the herbicide compared with non-transgenic watermelon [4]

COc1nc(C)nc(N(C)C(=O)NS(=O)(=O)c2ccccc2C(=O)O)n1 [tribenuron]
3 to 7 days: time to death of seedlings after spraying [9]
grew better: growth after spraying compared with seedlings of the heterozygous mutant strains ([5]; 7 days) | growth after spraying compared with seedlings of the heterozygous mutant strains ([7]; 7 days)
obvious resistance: resistance of seedlings to the herbicide compared with non-transgenic watermelon [1] | resistance of seedlings to the herbicide compared with non-transgenic watermelon [2] | resistance of seedlings to the herbicide compared with non-transgenic watermelon [3] | resistance of seedlings to the herbicide compared with non-transgenic watermelon [4]
died quickly: growth status of the watermelon seedlings after spraying ([9]; two-leaf one-heart period, observed 7 days)
grew normally: growth status of the watermelon seedlings after spraying ([5]; observed 7 days) | growth status of the watermelon seedlings after spraying [6] | growth status of the watermelon seedlings after spraying ([7]; observed 7 days) | growth status of the watermelon seedlings after spraying [8]
